Source: patent publication US9714250B2, “Crystalline forms of temozolomide and the method for preparing same” (Jiangsu Tasly Diyi Pharmaceutical Co., Ltd., priority 2013, dated 2017)

Tests used:
Type in all cases: physicochemical
Solubility test = settings: for Amount of solvent for dissolving tested drug: about 10 mg tested drug
Description: It should be noted that each crystalline form of Form A, Form B and Form C has similar solubility properties. Hereinafter, Form A0, B0 and C were chosen only for illustrative purpose.
1. Solubility test of the crystalline Form A of Temozolomide (Form A0 prepared by the method of EXAMPLE 1). Solubility properties were assayed respectively by using DMSO, methanol, water, glacial acetic acid, 0.1M HCl, 0.1M NaOH and ethanol as the solvents.
2. Solubility test of the crystalline form B of Temozolomide (Form B0 prepared by the method of EXAMPLE 6). Solubility properties were assayed respectively by using DMSO, methanol, water, glacial acetic acid, 0.1M HCl, 0.1M NaOH and ethanol as the solvents.
3. Solubility test of the crystalline form C of Temozolomide (Form C prepared by the method of EXAMPLE 14). Solubility properties were assayed respectively by using DMSO, methanol, water, glacial acetic acid, 0.1M HCl, 0.1M NaOH and ethanol as the solvents.

[1] = High temperature test (stability); settings: for Appearance and color / Content / Drying loss / Related substances: 60° C. incubator; for Related substances: HPLC
Description: (§1) In the following test, related substances were determined as follows: HPLC method was used and chromatographic conditions were as follows: C18 column using octadecylsilane bonded silica gel as the filler, isocratic elution using methanol: 0.5% glacial acetic acid solution (10:90) as the mobile phase, and detection wavelength was at 254 nm.
Crystalline form A of Temozolomide (Form A0 prepared by the method of EXAMPLE 1) was placed in 60° C. incubator, sampled and determined on the 5th and 10th day.
Crystalline Form B of Temozolomide (Form B0 prepared by the method of EXAMPLE 6) was placed in 60° C. incubator, sampled and determined on the 5th and 10th day.
Crystalline Form C of Temozolomide (Form C prepared by the method of EXAMPLE 14) was placed in 60° C. incubator, sampled and determined on the 5th and 10th day.

[2] = Light exposure test (stability); settings: for Appearance and color / Content / Drying loss / Related substances: light intensity 4500±500Lx; for Related substances: HPLC
Description: as §1
Crystalline form A of Temozolomide (Form A0 prepared by the method of EXAMPLE 1) was exposed under conditions of light intensity of 4500±500Lx, sampled and determined on the 5th and 10th day.
Crystalline form B of Temozolomide (Form B0 prepared by the method of EXAMPLE 6) was placed, exposed under conditions of light intensity of 4500±500Lx, sampled and determined on the 5th and 10th day.
Crystalline Form C of Temozolomide (Form C prepared by the method of EXAMPLE 14) was placed, exposed under conditions of light intensity of 4500±500Lx, sampled and determined on the 5th and 10th day.

[3] = High humidity test (stability); settings: for Related substances: HPLC
Description: as §1
Crystalline Form A of Temozolomide (Form A0 prepared by the method of EXAMPLE 1) was placed in 25° C. incubator (relative humidity: 75±5%), sampled and determined on the 5th and 10th day.
Crystalline Form B of Temozolomide (Form B0 prepared by the method of EXAMPLE 6) was placed in 25° C. incubator (relative humidity: 75±5%), sampled and determined on the 5th and 10th day.
Crystalline Form C of Temozolomide (Form C prepared by the method of EXAMPLE 14) was placed in 25° C. incubator (relative humidity: 75±5%), sampled and determined on the 5th and 10th day.

[4] = Accelerated test (stability); settings: 40±2° C., relative humidity 75±5%; for Appearance and color / Content / Related substances: polyethylene film bag; for Related substances: HPLC
Description: as §1
Crystalline Form A of Temozolomide (Form A0 prepared by the method of EXAMPLE 1) was sealed by a polyethylene film bag, placed under conditions of 40±2° C. and a relative humidity of 75±5% for 6 months, sampled and determined at the end of the 1st,2nd, 3rd and 6th month.
Crystalline Form B of Temozolomide (Form B0 prepared by the method of EXAMPLE 6) was sealed with a polyethylene film bag and placed under conditions of 40±2° C. and a relative humidity of 75±5% for 6 months, sampled and determined at the end of the 1st, 2nd, 3rd and 6th month.
Crystalline Form C of Temozolomide (Form C prepared by the method of EXAMPLE 14) was sealed with a polyethylene film bag and placed under conditions of 40±2° C. and a relative humidity of 75±5% for 6 months, sampled and determined at the end of the 1st, 2nd, 3rd and 6th month.

[5] = 25° C., relative humidity 75±5%, 0th day
[6] = 25° C., relative humidity 75±5%, 5th day
[7] = 25° C., relative humidity 75±5%, 10th day

## Cn1nnc2c(C(N)=O)ncn2c1=O [Form A, Temozolomide]
Solubility test; solvent 0.1M HCl
  Amount of solvent for dissolving 1 g of tested drug: 700 mL
  Solubility: Slightly soluble
  Amount of solvent for dissolving tested drug: 7 mL
Solubility test; solvent 0.1M NaOH
  Amount of solvent for dissolving 1 g of tested drug: 300 mL
  Solubility: Slightly soluble
  Amount of solvent for dissolving tested drug: 3 mL
Solubility test; solvent DMSO
  Amount of solvent for dissolving 1 g of tested drug: 70 mL
  Solubility: sparingly
  Amount of solvent for dissolving tested drug: 0.7 mL
Solubility test; solvent Ethanol
  Amount of solvent for dissolving 1 g of tested drug: 5500 mL
  Solubility: Very slightly
  Amount of solvent for dissolving tested drug: 55 mL
Solubility test; solvent Glacial acetic acid
  Amount of solvent for dissolving 1 g of tested drug: 300 mL
  Solubility: Slightly soluble
  Amount of solvent for dissolving tested drug: 3.0 mL
Solubility test; solvent Methanol
  Amount of solvent for dissolving 1 g of tested drug: 700 mL
  Solubility: Slightly soluble
  Amount of solvent for dissolving tested drug: 7.0 mL
Solubility test; solvent Water
  Amount of solvent for dissolving 1 g of tested drug: 800 mL
  Solubility: Slightly soluble
  Amount of solvent for dissolving tested drug: 8.0 mL
[1]; 0th day
  Appearance and color: White powder
  Content: 99.94%
  Drying loss: 0.41%
  Related substances: Not detected
[1]; 5th day
  Appearance and color: White powder
  Content: 99.63%
  Drying loss: 0.38%
  Related substances: Not detected
[1]; 10th day
  Appearance and color: White powder
  Content: 99.31%
  Drying loss: 0.34%
  Related substances: Not detected
[1]; 60° C., 10 days
  Stability in the high-temperature test (conclusion): stable
[2]; 4500±500Lx, 10 days
  Stability in the light exposure test (conclusion): stable
[2]; 0th day
  Appearance and color: White powder
  Content: 99.94%
  Drying loss: 0.35%
  Related substances: Not detected
[2]; 5th day
  Appearance and color: White powder
  Content: 99.93%
  Drying loss: 0.33%
  Related substances: Not detected
[2]; 10th day
  Appearance and color: White powder
  Content: 99.81%
  Drying loss: 0.39%
  Related substances: Not detected
[3]; 25° C., relative humidity 75±5%, 10 days
  Stability in the high-humidity test (conclusion): stable
[3]; [5]
  Appearance and color: White powder
  Content: 99.94%
  Weight gain of moisture absorption: 0%
  Related substances: Not detected
[3]; [6]
  Appearance and color: White powder
  Content: 99.73%
  Weight gain of moisture absorption: 0.32%
  Related substances: Not detected
[3]; [7]
  Appearance and color: White powder
  Content: 99.52%
  Weight gain of moisture absorption: 0.51%
  Related substances: Not detected
[3]; under the high-humidity condition
  Weight gain of moisture absorption (trend): slightly increased
[4]; 6 months
  Stability in the accelerated test (conclusion): stable
[4]; 0th month
  Appearance and color: White powder
  Content: 99.94%
  Related substances: Not detected
[4]; 1st month
  Appearance and color: White powder
  Content: 99.81%
  Related substances: Not detected
[4]; 2nd month
  Appearance and color: White powder
  Content: 99.64%
  Related substances: Not detected
[4]; 3rd month
  Appearance and color: White powder
  Content: 99.92%
  Related substances: Not detected
[4]; 6th month
  Appearance and color: White powder
  Content: 99.62%
  Related substances: Not detected
